In patent US9187411B2, “Leukotriene B4 antagonist compound” (Eli Lilly and Company, priority 2012, dated 2015):

System: LTB4-induced CD11b expression in neutrophils
Experiment: CD11b assay, mouse whole blood
Format: cell-based
Details: Neutrophil, 25 nM LTB4
Procedure: EDTA anti-coagulated blood is collected from human donors or mice as before. For in vitro experiments, 8 or 10 point dose response curves of test compounds are assayed at final concentrations of 78 nM-10 μM or 20 nM-10 μM respectively. ½ serial dilutions of compound at 1000× of final assayed concentration are prepared in DMSO. Compound is then diluted to 10× in DPBS (DMSO concentration is now 1%). 10 μL of compound dilutions (at 10× in DPBS) or 1% DMSO in DPBS are added to wells of a 96 deep well plate. 90 μL whole blood is added and incubated 20 min at room temperature. 11 μL of 10×LTB4 (final concentration 25 nM for mouse or 10 nM human) is added and incubated at 37° C. for 30 min. The reaction is stopped by incubating the plate on ice for 5 min. The cells are stained with 10 μL anti-mouse or anti-human CD11b-PE (BD Biosciences diluted 1:20 for mouse and undiluted for human) and incubated on ice for 30 min in the dark (for mouse experiments, 10 μL anti-mouse LY6G-FITC antibody (BD Pharmingen) diluted 1:25 is added for the final 10 min) Red blood cells (RBCs) are lysed by adding 1.5 mL of 1×BD FACSlyse (BD Biosciences) and incubating for 10 min at room temperature in the dark. […] Data are analyzed with WinList software (Verity Software House) to determine mean and median fluorescent intensity values for CD11b-PE from neutrophil population.

CCCc1c(NC(=O)CC(C)(C)C(=O)[O-])cccc1OCCCOc1cc(O)c(-c2ccc(F)cc2)cc1CC.[Na+] [Example 2, Sodium 4-[[3-[3-[2-ethyl-4-(4-fluorophenyl)-5-hydroxy-phenoxy]propoxy]-2-propyl-phenyl]amino]-2,2-dimethyl-4-oxo-butanoate] was tested, and the IC50 was 1450 nM.
